Data from patent US11866416B2, “Streptococcus mutans glucosyl transferase inhibitors for dental caries therapy” (UAB Research Foundation, priority 2018, dated 2024).
≈ marks a conversion by molar mass, not a printed value. Read-outs that look alike come from different tables or passages of the source.

Key:
S. mutans biofilm = S. mutans biofilm formation and inhibition assay (96-well plates, crystal violet); type: cell-based, Streptococcus mutans
Procedure: Biofilm assays using 96-well flat-bottom polystyrene microtiter plates were performed to evaluate S. mutans biofilm formation at various conditions as described (Liu et al. (2011) Antimicrobial Agents and Chemotherapy 55, 2679; Zhang et al. (2015) International Journal of Antimicrobial Agents 46, 174), the disclosures of which are incorporated herein by reference in their entirety). Each assay was replicated three times. Compounds that inhibited biofilm formation at minimum concentration (MBIC) were determined by serial dilutions.
S. mutans biofilm formation and inhibition assays. […] Each assay was replicated three times. Minimum biofilm inhibitory concentration (MBIC) of compounds was determined by serial dilutions.
S. mutans biofilm formation and inhibition assays. Biofilm assays using 96-well flat-bottom polystyrene microtiter plates were performed to evaluate S. mutans biofilm formation at various conditions as described. Each assay was replicated […]. Compounds that inhibited 50% biofilm formation were determined by serial dilutions.
S. mutans biofilm formation and inhibition assays. A well-established protocol to study S. mutans biofilm formation in 96-well flat-bottom polystyrene microtiter plates was used, in triplicate (Mattos-Graner, R. O.; Napimoga, M. H.; Fukushima, K.; Duncan, M. J.; Smith, D. J., Comparative analysis of Gtf isozyme production and diversity in isolates of Streptococcus mutans with different biofilm growth phenotypes. Journal of clinical microbiology 2004, 42 (10), 4586-4592). The stock solutions were made up in 100% DMSO, and final concentration of DMSO used in the assays was 1%. Minimum biofilm inhibitory concentration (MBIC) of compounds was determined by serial dilutions.

S. mutans = assay: microbe, parasite or virus in culture; type: cell-based, Streptococcus mutans; conditions: for MIC50: Streptococcus mutans; for Selectivity: growth versus biofilm
Procedure: Cell viability of S. mutans, S. gordonii, S. sanguinis, Aggregatibacter actinomycetemcomitans and Actinomyces. […] The number of colony-forming units (CFU) per milliliter of each sample treated with selected compounds at different concentrations was enumerated after incubation for 24 h at 37° C. and compared to the values obtained from the DMSO control group. Overnight broth cultures were transferred by 1:50 dilutions into fresh THB medium and were allowed to grow until mid-exponential phase (OD470 nm 0.6) before transfer to 96-well plates containing desired concentration of the compound. After 16 h incubation, bacterial growth was measured at OD470, and normalized to the DMSO control (100%).
Cell viability of S. mutans and commensal S. gordonii and S. sanguinis. Effects of lead small molecules on cell viability were examined. The number of colony-forming units (CFU) per milliliter for each compound at different concentrations was determined after incubation for 24 h at 37° C. and compared to the values obtained from the DMSO control group.
Cell viability of S. mutans and commensal S. gordonii and S. sanguinis. […] DMSO served as a control group and provided a relative comparison for the number of colony-forming units (CFU) per milliliter for each compound at different concentrations was determined after incubation for 24 h at 37° C. The final concentration of DMSO used in the assays was 1%.

[1] = Streptococcus mutans, Table 2, read-out: Biofilm Inhibition IC50
[2] = Table 2, >300 = no inhibition up to 300 μM, read-out: Growth Inhibition MIC50
[3] = Streptococcus mutans, Table 1, >500 = no inhibition up to 500 μM, read-out: Biofilm Inhibition IC50
[4] = Streptococcus mutans, Table 4, stilbenes, NI = no inhibition, read-out: Biofilm IC50
[5] = Streptococcus mutans, Table 8, stilbenes, NI = no inhibition, read-out: Biofilm IC50
[6] = Table 4, stilbenes, average of at least 5 measurements, NI = no inhibition, read-out: Growth MIC50
[7] = Table 8, stilbenes, average of at least 5 measurements, NI = no inhibition
[8] = Streptococcus mutans, Table 3, read-out: Biofilm Inhibition IC50
[9] = Table 3, >300 = no inhibition up to 300 μM, NI = no inhibition up to 400 μM, read-out: Growth Inhibition MIC50
[10] = Table 6, chalcones, 200 μM, NI = no inhibition
[11] = Streptococcus mutans, Table 5, >500 = no inhibition up to 500 μM, read-out: Biofilm Inhibition IC50

SMILES	IC50 (S. mutans biofilm; [1]) [µM]	MIC50 (S. mutans; [2]) [µM]	IC50 (S. mutans biofilm; [3]) [µM]	also measured
[N-]=[N+]=Nc1ccc(C(=O)Nc2ccccc2C(N)=O)cc1 [SN-I-288]	212	> 300	–	–
NC(=O)c1ccccc1OC(=O)c1cc2cc([N+](=O)[O-])ccc2o1 [BA]	–	–	279	–
NC(=O)c1ccccc1OC(=O)c1cnc2ccccc2c1 [Compound 298F7]	30.4	> 300	–	–
NC(=O)c1ccc(NC(=O)c2ccc3ccccc3c2O)cc1 [BN]	56.9	> 300	56.9	–
COc1ccc(/C=C/c2cc(O)cc(O[C@@H]3O[C@H](CO)[C@@H](O)[C@H](O)[C@H]3O)c2)cc1O [Entry 12]	–	–	–	IC50 (S. mutans biofilm; [4]): 106 ± 11 µM; IC50 (S. mutans biofilm; [5]): 106 ± 11 µM; MIC50 (S. mutans; [6]): 134 ± 11 µM (≈ 56.3 µg/mL); Selectivity (S. mutans; Table 4, stilbenes): 1.2; Growth MIC50 (S. mutans; [7]): 134 ± 11 µM; Selectivity (S. mutans; Table 8, stilbenes): 1.2
O=c1c(O)c(-c2cc(O)c(O)cc2O)oc2ccccc12 [SN-II-92]	–	–	–	IC50 (S. mutans biofilm; [8]): 19.8 ± 2 µM; MIC50 (S. mutans; [9]): 63.1 ± 4 µM (≈ 18.1 µg/mL)
COC(=O)c1ccccc1NC(=O)c1cc2cc([N+](=O)[O-])ccc2s1 [Compound 3C]	–	–	> 500	–
NC(=O)c1cc(NC(=O)c2cc3cc([N+](=O)[O-])ccc3s2)cc(C(N)=O)c1 [SN-II-50]	4.6	> 300	–	–
O=C(/C=C/c1cccc(O)c1)c1ccccc1O [Compound 2]	–	–	–	Biofilm inhibition 200 μM (%) (S. mutans biofilm; [10]): 84 ± 3%; IC50 (S. mutans biofilm; Table 6, chalcones, read-out: S. mutans Biofilm IC50): 64 ± 4 µM; Growth inhibition 200 μM (%) (S. mutans; [10]): 86 ± 0.5%; IC50 (S. mutans; Table 6, chalcones, NI = no inhibition, read-out: S. mutans Growth IC50): 32 ± 0.3 µM
NC(=O)c1cc(NC(=O)c2cc3cc([N+](=O)[O-])ccc3s2)ccc1[N+](=O)[O-] [SN-II-59]	23.4	> 300	–	–
COC(=O)c1cccc(NC(=O)c2cc3cc(N)ccc3o2)c1 [SN-II-105]	5.5	347 (≈ 108 µg/mL)	–	–
NC(=O)c1ccc(NC(=O)c2cc3ccccc3s2)cc1 [Compound 3Y]	45.6	> 300	45.6	–
COC(=O)c1cccc(NC(=O)c2cc3cc([N+](=O)[O-])ccc3s2)c1 [Compound 3U]	54.4	> 300	54.4	–
O=C(Nc1ccccc1F)c1cc2cc([N+](=O)[O-])ccc2s1 [BM]	162	> 300	162	–
Cc1ccc(S(=O)(=O)Nc2cccc(NC(=O)c3cc4cc([N+](=O)[O-])ccc4s3)c2)cc1 [AD]	63.7	> 300	63.7	–
COC(=O)c1cccc(NC(=O)c2cnc3ccccc3c2)c1 [AA]	147	> 300	147	–
NC(=O)c1ccccc1NC(=O)c1ccc2ncsc2c1 [SN-I-271U]	36.1	> 300	–	–
O=C(/C=C/c1ccc(O)c(O)c1)c1ccc(O)c(O)c1O [Okanin (natural), Okanin]	–	–	–	IC50 (S. mutans biofilm; [8]): 64 ± 7 µM; MIC50 (S. mutans; [9]): 534 ± 17 µM (≈ 154 µg/mL)
COC(=O)c1ccc(NC(=O)c2cc3ccccc3s2)cc1 [Compound 3V]	41.2	> 300	41.2	–

SMILES	IC50 (S. mutans biofilm; [1]) [µM]	MIC50 (S. mutans; [2]) [µM]	IC50 (S. mutans biofilm; [3]) [µM]	also measured
O=C(Nc1ccccc1)c1cnc2ccccc2c1 [Compound 3L]	–	–	> 500	IC50 (S. mutans biofilm; [11]): > 500 µM
COC(=O)c1cccc(NC(=O)c2cc3cc([N+](=O)[O-])ccc3[nH]2)c1 [AB]	31.4	> 300	31.4	–
COc1ccc2[nH]c(C(=O)Nc3cccc(C(N)=O)c3)cc2c1 [Compound 3W]	56.6	> 300	56.6	–
CCc1ccccc1NC(=O)c1cc2cc([N+](=O)[O-])ccc2s1 [BL]	158	> 300	158	–
COc1ccc(/C=C/C(=O)c2ccc3c(c2)OCO3)cc1O [Compound 14]	–	–	–	effect on S. mutans biofilm in the preliminary screen (S. mutans biofilm; chalcones, 200 μM): no anti-biofilm effects
COc1ccc2[nH]c(C(=O)Nc3ccc(C(N)=O)cc3)cc2c1 [BY]	–	–	> 500	–
COc1cc(OC)c(OC)cc1/C=C1\Oc2ccccc2C1=O [LC-I-205]	–	–	–	IC50 (S. mutans biofilm; [8]): 8.3 ± 1 µM; MIC50 (S. mutans; [9]): > 300 µM
NC(=O)c1ccccc1OC(=O)c1cc2cc([N+](=O)[O-])ccc2s1 [Compound 3Q]	50.4	> 300	50.4	–
NC(=O)c1cccc(NC(=O)c2cc3cc([N+](=O)[O-])ccc3s2)c1 [Compound 3P]	42.3	> 300	42.3	–
COc1ccc(/C=C/C(=O)c2ccc(OC)c(OC)c2)cc1O [Compound 13]	–	–	–	Biofilm inhibition 200 μM (%) (S. mutans biofilm; [10]): 27 ± 4%; biofilm inhibition at 200 μM (S. mutans biofilm; chalcones, 200 μM): 30%; activity of stilbenes against S. mutans biofilm (S. mutans biofilm; stilbenes): not active against biofilm and growth; Growth inhibition 200 μM (%) (S. mutans; [10]): 30 ± 0.7%; growth inhibition at 200 μM (S. mutans; chalcones, 200 μM): 30%; activity of stilbenes against S. mutans growth (S. mutans; stilbenes): not active against biofilm and growth
O=C(Nc1ccccc1Br)c1cc2cc([N+](=O)[O-])ccc2s1 [BI]	122	> 300	122	–
NC(=O)c1cccc(NC(=O)c2ccccc2-c2ccccc2)c1 [BO]	49.4	> 300	49.4	–
Oc1ccc(/C=C/c2ccc(O)cc2)cc1 [Entry 4]	–	–	–	IC50 (S. mutans biofilm; [4]): 344 ± 17 µM; IC50 (S. mutans biofilm; [5]): 344 ± 17 µM; MIC50 (S. mutans; [6]): 854 ± 58 µM (≈ 181 µg/mL); Selectivity (S. mutans; Table 4, stilbenes): 2.4; Growth MIC50 (S. mutans; [7]): 854 ± 58 µM; Selectivity (S. mutans; Table 8, stilbenes): 2.4
COC(=O)c1ccccc1NC(=O)c1ccc2ccccc2n1 [BD]	89.5	> 300	89.5	–
CC(C)(C)OC(=O)NCc1ccccc1NC(=O)c1cnc2ccccc2c1 [AK]	52.8	> 300	52.8	–
NC(=O)c1ccccc1NC(=O)c1ccc2ncoc2c1 [HW-1-179]	65.1	> 300	–	–
NC(=O)c1ccccc1NC(=O)c1cc2cc([N+](=O)[O-])ccc2[nH]1 [Compound 3H]	–	–	> 500	–
COC(=O)c1ccccc1NC(=O)c1cnc2ccccc2c1 [BF]	–	–	446	–
NC(=O)c1ccccc1NC(=O)c1ccc2ccccc2n1 [AY]	–	–	> 500	–

SMILES	IC50 (S. mutans biofilm; [1]) [µM]	MIC50 (S. mutans; [2]) [µM]	IC50 (S. mutans biofilm; [3]) [µM]	also measured
CC(C)c1ccccc1NC(=O)c1cc2cc([N+](=O)[O-])ccc2s1 [BJ]	–	–	262	–
NC(=O)c1ccc(NC(=O)c2cnc3ccccc3c2)cc1 [Compound 3T]	–	–	> 500	–
O=c1c(O)c(-c2ccc(O)cc2)oc2ccccc12 [SN-II-78]	–	–	–	IC50 (S. mutans biofilm; [8]): 200 ± 10 µM
Cc1ccc(S(=O)(=O)Nc2ccccc2N)cc1 [BU]	–	–	> 500	–
NC(=O)c1ccccc1OC(=O)c1cc2ccccc2s1 [AF]	–	–	> 500	–
O=C(Nc1ccccc1I)c1cnc2ccccc2c1 [BG]	–	–	> 500	–
NC(=O)c1ccccc1NC(=O)c1cccc2ccccc12 [BQ]	–	–	446	–
NC(=O)c1ccccc1NC(=O)c1ccc(-c2ccccc2)cc1 [AU]	–	–	> 500	–
NC(=O)c1ccc(NC(=O)c2cc3cc([N+](=O)[O-])ccc3s2)cc1 [BV]	–	–	395	–
NC(=O)c1ccc(NC(=O)c2ccc3ccccc3c2)cc1 [AW]	–	–	> 500	–
CC(C)c1ccccc1NC(=O)c1cnc2ccccc2c1 [BK]	–	–	> 500	–
NC(=O)c1ccccc1NC(=O)c1cc2ccccc2[nH]1 [Compound 3E]	–	–	> 500	–
NC(=O)c1ccccc1NC(=O)c1ccc2ccccc2c1 [AS]	–	–	84.1	–
NC(=O)c1cccc(NC(=O)c2ccc3ccccc3c2O)c1 [BP]	–	–	270	–
O=C(Nc1ccccc1)c1cc2cc([N+](=O)[O-])ccc2s1 [Compound 3D]	–	–	> 500	IC50 (S. mutans biofilm; [11]): > 500 µM
NC(=O)c1ccc(NC(=O)c2cc3cc([N+](=O)[O-])ccc3o2)cc1 [AG]	–	–	239	–
CCc1ccccc1NC(=O)c1cnc2ccccc2c1 [BH]	–	–	204	–
O=c1c(O)c(-c2cc(O)c(O)c(O)c2)oc2cc(O)ccc12 [PAY]	–	–	–	IC50 (S. mutans biofilm; [8]): 74.5 ± 9.8 µM
